Values quoted from earlier work as cited in patent US8716182B2, “Liquid aqueous crop protection formulations” (BASF SE, priority 2008, dated 2014).

Conditions: miscible means fully miscible with water

| Structure (SMILES) | solubility in water at 20° C. |
| --- | --- |
| OCCOc1ccccc1 [Agrisol PX401, 2-phenoxyethanol] | (24 g/l) |
| COCC(C)OC(C)=O (stereo not shown) [Arcosolv ® PMA, 1-methoxy-2-propanol acetate] | acetate)(400 g/l) |
| C[S+](C)[O-] [DMSO, dimethyl sulfoxide] | (miscible) |
| CCCOC(=O)C(C)O (stereo not shown) [Purasolv ® NPL, n-propyl lactate] | (miscible) |
| OCC1CCCO1 (stereo not shown) [tetrahydrofurfuryl alcohol] | (miscible) |
| CC(=O)OCC(COC(C)=O)OC(C)=O [triacetin] | (64 g/l) |
| O=C1CCCO1 [γ-butryrolacton, γ-butyrolactone] | (miscible) |
